The values below come from patent US20230172132A1, “A METHOD FOR […] CONTENT IN A CROP PLANT” (SENSIENT COLORS, LLC, priority 2020, published 2023).

For one assay, the system named is beet plant. Nature of the assay: Pre-harvest foliar spraying of ethylene-releasing compound on beet leaves, betalain concentration of roots versus unsprayed controls. The format is in vivo, Beta vulgaris. From the text: In one embodiment, the method comprises the pre-harvest foliar spraying of an ethylene-releasing compound on a beet plant, wherein the pre-harvest foliar spraying of an ethylene-releasing compound leaves the mean betalain concentration in the roots of the treated plants increased by more than 200% when compared to controls without any spraying.
The method described herein may be used for commercially-relevant, large scale production of a betalain pigment, e.g., the large scale isolation from a beet crop plant. Accordingly, it may be that the isolation of betalains of step (iii) is done from at least 15 different harvested beet plants, more preferably from at least 100 different harvested beet plants, even more preferably from at least 500 different harvested beet plants, or such as from at least 1000 different harvested beet plants. It is evident that when at least 15 different harvested beet plants are used in isolation step (iii), then foliar spraying of ethylene-releasing compound (e.g., 2-Chloroethylphosphonic acid) of step (i) has been done on at least 15 different beet plants and in step (ii), at least 15 different crop plants have been harvested. As discussed above, the present inventors identified that by pre-harvest foliar spraying of 2-Chloroethylphosphonic acid (e.g., 2-Chloroethylphosphonic acid) on beet leaves the mean betalain concentration of treated plants increased by an increased amount when compared to controls without any spraying.
Preferably, the amount of isolated betalain pigment in step (iii) of the method is an amount of betalain pigment which is at least 15% higher (w/w), more preferably at least 20/a higher (w/w), even more preferably at least 25% higher (w/w), and most preferably at least 35% higher (w/w), as compared to the amount of betalain pigment that is isolated in a control experiment without use of the ethylene-releasing compound in step (i). The purpose of a control experiment is to analyze the effect of using ethylene-releasing compound (e.g. 2-Chloroethylphosphonic acid). […]

For a further assay, the system named is red beet (Beta vulgaris). In words: Greenhouse testing: foliar spray of Ethephon on crop plants, pigment content of roots at harvest. The format is in vivo. The note with it: for Betanin / Vulgaxanthin: greenhouse, spray rate not given. Here is the method: Planting of varieties were staggered across several weeks to vary maturity for one spray. Two spray rates were administered across all plants on one spray date ([…]). Harvesting was done 3-4 weeks after spray. Initial visualization was performed prior to crop samples sent to laboratory for evaluation.

Where [1] appears, read: harvest 7, 10, 13, 16, 19, 22, 25, 26, 29 and 35 weeks after planting, every harvest point.

In the case of `O=P(O)(O)CCCl` [Ethephon, 2-Chloroethylphosphonic acid], the “mean betanin concentration of treated roots” value in the assay with beet plant (setting [1]) is recorded as “higher”. For the same molecule, the “mean vulgaxanthin concentration of treated roots” value in the assay with beet plant (setting [1]) is “higher”. The “mean betalain concentration of treated plants compared to controls without any spraying” value in the assay on beet plant (pre-harvest foliar spraying on beet leaves) is on record as “increased”. For the same molecule, the Betanin is recorded as 320 mg/kg, dry basis in the assay with red beet (Beta vulgaris) (beet variety Chioggia); 9,400 mg/kg, dry basis in the assay with red beet (Beta vulgaris) (red beet variety Nochowski); 6,000 mg/kg, dry basis with red beet (Beta vulgaris) (red beet variety Red Cloud); 3,500 mg/kg, dry basis in the assay with red beet (Beta vulgaris) (red beet variety Ruby Queen). The Vulgaxanthin in the assay with red beet (Beta vulgaris) (beet variety Chioggia) was 380 mg/kg, dry basis; in the assay with red beet (Beta vulgaris) (red beet variety Nochowski), 6,700 mg/kg, dry basis; in the assay with red beet (Beta vulgaris) (red beet variety Red Cloud), 3,300 mg/kg, dry basis; in the assay with red beet (Beta vulgaris) (red beet variety Ruby Queen), 800 mg/kg, dry basis. In addition, in the assay on red beet (Beta vulgaris) (carrots, beets and radishes, spray 120 g/h and 360 g/h, harvest 3-4 weeks after spray), the Anthocyanin levels entry was “Enhanced”.
